Laboratory results from patent publication US11285180B2, “Methods of enhancing the potency of incretin-based drugs in subjects in need thereof” (INSERM (INSTITUT NATIONAL DE LA SANTE ET DE LA RECHERCHE …, priority 2016, dated 2022).

What was measured:
distal ileum segment = test: Ex vivo ileal real-time NO measurement; design: species or system mice
Experimental: The distal ileum segment from fed mice were washed in Krebs-Ringer bicarbonate/glucose buffer (pH 7.4) in an atmosphere containing 95% O2—5% CO2 and then immersed in Eppendorf tubes containing 400 μL of the same medium. After a 10 min recovery period, the spontaneous NO release in response to 10 μL of Krebs-Ringer solution (control), GLP-1 (150 nM) and/or Exendin 9 (375 nM) was measured at 37° C. for 10 min using a NO-specific amperometric probe (ISO-NOPF, […], 5 mm length, World Precision Instruments, Aston Stevenage, UK) implanted directly in the ileum. Data are expressed (Fournel et al., 2015).

[1] = tested on: GLP-1-induced insulin secretion; test: In vivo GLP-1 stimulated insulin secretion (i.p. GLP-1, then i.v. glucose challenge); design: species or system mice
Experimental: (§1) To evaluate GLP-1 sensitivity three GLP-1 regulated parameters were quantified: insulin secretion, gastric emptying, and food intake. To prevent from the degradation of exogenous GLP-1 a DPP4 inhibitor (400 μg/mouse sitagliptin) was given orally 30 min before the GLP-1 challenge.
Since GLP-1 insulinotropic effect is glucose dependent we first assessed in vivo GLP-1 stimulated insulin secretion in hyperglycemic conditions. The mice were first fasted for 6 h before the GLP-1 and glucose challenges. Active GLP-17-36 (BACHEM, Switzerland) was then administered intraperitoneally at different doses (0, 2.2, 7, 20, 63 nmol/kg, diluted in distilled water) 5 min before the glucose challenge. In some sets of experiments a single active dose of 7 nmol/kg was tested. To induce hyperglycemic conditions a retrorbital i.v. glucose (1 g/kg) injection was realised. This procedure avoids the confounding effect of the oral glucose-induced gut-secreted GLP-1. Blood (30 μl) was collected from the tail vein 15 min after glucose challenge. Plasma insulin concentration was determined.
The dose-response curve was calculated by curve interpolation with 4-Parameter Logistic (4PL) sigmoidal model using GraphPad Prism version 6.00 for Mac (GraphPad Software, San Diego, Calif., USA; www.graphpad.com) and the ECso calculated.
(§2) Thirty minutes before all 3 GLP-1 challenge procedures, a NO synthase (NOS) inhibitor (L-NAME, Abcam) was administered i.p. at doses of 0, 50, 100, 200 μg/kg. In a different set of mice, a NO donor (L-Arginine, 1 g/kg, Sigma-Aldrich) was administered orally in the presence or absence of the GLP-1r antagonist, Exendin 9 (1 nmol/mice, 100 μL, i.p. injection, Bachem). To study the chronic effect of L-arginine in GLP-1 sensitivity, the molecule (0.5 g/kg, 300 μL, lgavage/day) was administered for one week.

[2] = tested on: cFos positive cells in the brain stem (NTS-DMNX); test: c-FOS immunostaining in the brain stem after GLP-1; format: in vivo, mice
Experimental: Brain was removed and kept on PFA 4% overnight at 4° C. After washing in cold citrate buffer for 6 h, brain was warmed until boiling, washed in PBS, cooled to 4° C., then immersed in cold sucrose solutions (10% then 30% in PBS). After freezing on dry ice, the brain was stored at −80° C. and cut into 20 μm thick slices (cryostat, Thermo). The slices were washed 3 times with PBS, blocked with PBS, 0.3% Triton X100, 2% donkey serum and incubated with the c-fos antibody diluted in the same solution ( 1/10000, Santa Cruz) overnight at RT. After 16 h, the brain slices were washed 3 times with PBS and incubated with biotinylated antibody ( 1/2000, Jackson ImmunoResearch) diluted in the PBST solution (PBS, 0.3% Triton X100) for 1 h at RT. Brain slices were washed 3 times in PBS and incubated with the reagent A (avidin) and B (biotinylated enzyme) from Vectastain Elite ABC kit (Vector Laboratories) diluted in the PBST solution, 30 min at RT. Then, brain slices were washed 3 times in PBS and incubated with biotinylated tyramine solution (tyramine and biotin diluted in borate buffer/3% H2O2, pH=8.4), 20 min at RT. […] The fluorescence was analysed as above. We identified the Nucleus Tractus Solitary NTS and dorsal motor nucleus of vagus nerve DMNX area using a mouse brain atlas (Franklin and Paxinos, 1997) and we counted the number of cFOS positive cells/area corresponding to the NTS-DMNX.

food intake = test: GLP-1 regulated food intake (30 min after 16-hour fast); format: in vivo, mice
Experimental: as §1
Food intake was recorded for 30 min following a 16-hour period of fast.
as §2

gastric emptying = test: GLP-1 regulated gastric emptying (oral acetaminophen, plasma acetaminophen); format: in vivo, mice
Experimental: as §1
For gastric emptying the glucose challenge was replaced by an oral administration of acetaminophen (SIGMA-Aldrich, […]). The plasma acetaminophen concentrations were assessed by colorimetric-based assay (SEKISUI diagnostics, Canada) in the plasma from tail blood during 15 min.
as §2

primary enteric neurons = test: GLP-1-induced NO production in primary cultures of enteric neurons (DAF-FM); format: cell-based, mice
Experimental: The protocol was adapted from Smith and colleagues (Smith et al., 2013). The ileum (last 9 cm) was harvested and kept in ice cold-carbogen bubbled-Krebs solution. The tissue was cut into 3 cm slices and kept on plastic rod. An incision was realized with a forceps where the mesentery was attached. The outer layers containing muscular cells and myenteric neurons (LMMP) were obtained by moving from top to bottom, along the gap. The LMMP were digested with collagenase II (1.3 mg/mL, Worthington) and BSA (0.3 mg/mL) in Krebs solution bubbled with carbogen 30 min in a 37° C. shaking bath. Digested cells were transferred in Hank Balanced salt Solution (HBSS)/trypsin solution (0.05%) 7 min in a 37° C. shaking bath. […]
Primary enteric neurons were grown for 7 days in culture. […] The fluorescence was measured on confocal Zeiss Laser Scanning Microscope LSM-780 equipped with 63×/1.4 NA oil immersion objective and a GaAsP detector with quantum yield of 45% with Black Zen software and analysed with Image J software. A region of interest (ROI) corresponding to identified nNOS positive cells was defined from where the DAF-FM or nNOS fluorescence mean per ROI was measured. The ratio of both values for each ROI was then calculated.

insulin secretion = test: Oral glucose-induced insulin secretion after oral NO donor; format: in vivo, mice
Experimental: To identify oral glucose-induced insulin and GLP-1 secretions, all sets of mice were gavaged with glucose (2 g/kg). After 15 min, 30 μl of blood from the tip of the tail vein were sampled to assess plasma insulin concentration. 300 μl of portal vein blood were collected following an intravenous (i.v.) administration of a Ketamin (10 mg/kg)/Xylasin (1 mg/kg), to ensure an immediate anesthesia of the mice. This procedure allows performing portal vein blood sampling since it dramatically minimizes the impact of anesthesia on blood parameters. In addition, to prevent from the in vivo degradation of GLP-1 by DPP4, a DPP4 inhibitor (400 μg/mouse sitagliptin, MSD Rahway, N.J.) was administered orally 30 min before the oral gavage with glucose. Eventually, the portal blood was collected in the presence of protease inhibitors diprotin A (1 mM), aprotinin (0.2 μM) and EDTA (1 mM). Plasma hormones were assessed by ELISA (insulin, Mercodia; active GLP-17-36, Alpco). A GLP-1 resistance index for each mice was calculated from glucose, insulin and GLP-1 concentrations 15 min after the oral glucose load. Since the insulinotropic activity of GLP-1 depends upon the glycemic level we set the following equation: Glucose x GLP-1 concentrations/insulin concentration. In some experiments, distal ileum and left nodose ganglion were harvested from mice.
as §2

[3] = tested on: meal-induced insulin secretion; conditions: administered orally; healthy, type II diabetic patients, and diabetic mice; cited from earlier work
[4] = L-NAME i.p. 30 min before GLP-1 challenge

**Q.** With “GLP-1: Active GLP-1 7-36 (BACHEM), insulinotropic hormone, GLP-1 receptor agonist” as the compound, how does the “GLP-1-induced NO production ex vivo from ileum segments” value (distal ileum segment; HFD-fed GLP-1 resistant mice) read?
**A.** Its value is “totally blunted”.

**Q.** And the “GLP-1-induced NO production ex vivo from ileum segments” value (distal ileum segment; NCD versus HC-HFD-fed GLP-1 sensitive mice)?
**A.** The value was “similar”.

**Q.** What about the “EC50 of GLP-1-induced insulin secretion (fold change dose-response)” value ([1]; HC-HFD mice compared to NCD mice) of the same compound?
**A.** The value was “doubled”.

**Q.** What about the “EC50 of GLP-1-induced insulin secretion (fold change dose-response)” value ([1]; HFD-fed lean diabetic mice compared to NCD mice) of the same compound?
**A.** Its value is “dramatically increased”.

**Q.** What about the “dose of GLP-1 reaching the maximal insulin secretion” value ([1]; NCD and HC-HFD-fed mice, GLP-1 i.p., plasma insulin 15 min after i.v. glucose) of the same compound?
**A.** The value was 7 nmol/kg.

**Q.** What about the GLP-1-induced insulin secretion ([1]; NCD-fed subdiaphragmatic vagotomy (SDVx) mice, GLP-1 7 nmol/kg) of the same compound?
**A.** The GLP-1-induced insulin secretion was “reduced”.

**Q.** And the GLP-1-induced insulin secretion ([1]; NOD2, CD14 and TLR4 KO mice compared to wild type controls)?
**A.** Its GLP-1-induced insulin secretion is “dramatically reduced”.

**Q.** And the GLP-1-induced insulin secretion ([1]; germ free mice)?
**A.** Its GLP-1-induced insulin secretion is “prevented”.

**Q.** And the “number of cFos positive neurons in response to GLP-1” value ([2]; NCD mice, GLP-1 7 nmol/kg)?
**A.** Its value is “increases”.

**Q.** What about the “number of cFos positive cells in the brain stem after GLP-1 administration” value ([2]; germ free mice) of the same compound?
**A.** Its value is “could not be increased”.

**Q.** And the “energy intake with increasing doses of GLP-1” value (food intake; HFD-fed lean diabetic mice compared to NCD-fed mice)?
**A.** The value was “only modestly reduced”.

**Q.** What about the food intake (food intake; NOD2, CD14 and TLR4 KO mice) of the same compound?
**A.** The food intake was “remained unchanged”.

**Q.** What about the “energy intake after GLP-1 administration” value (food intake; sham versus SDVx-operated mice) of the same compound?
**A.** The value was “similar”.

**Q.** What about the gastric emptying (gastric emptying; NOD2, CD14 and TLR4 KO mice) of the same compound?
**A.** Its gastric emptying is “impaired”.

**Q.** What about the “GLP-1 effect on gastric emptying” value (gastric emptying; SDVx-operated NCD-fed mice) of the same compound?
**A.** The value was “induces GLP-1 resistance to gastric emptying”.

**Q.** What about the “plasma concentrations of acetaminophen after GLP-1 administration (gastric emptying)” value (gastric emptying; both fat-enriched diet-fed mice (HC-HFD, HFD)) of the same compound?
**A.** Its value is “remained elevated”.

**Q.** And the “GLP-1-induced NO production” value (primary enteric neurons; enteric neurons from HFD-fed mice versus NCD)?
**A.** The value was “dramatically resistant”.

**Q.** And the “NO production by enteric neurons stimulated by GLP-1” value (primary enteric neurons; enteric neurons from germ free mice)?
**A.** Its value is “could not be stimulated”.

**Q.** For Exendin 9, which “effect on GLP-1 induced NO production” value (distal ileum segment; ileum segments, Exendin 9 with GLP-1) is on record?
**A.** Its value is “prevented GLP-1 induced NO production”.

**Q.** What about the “effect of co-treatment on L-Arginine-increased insulin secretion” value (insulin secretion; NCD-fed mice, co-treatment with L-Arginine) of the same compound?
**A.** The value was “prevented the effect of GLP-1”.

**Q.** Which meal-induced insulin secretion [3] does the source give for `N=C(N)NCCC[C@H](N)C(=O)O` [L-Arginine] here?
**A.** Its meal-induced insulin secretion is “improves”.

**Q.** And the “GLP-1-induced insulin secretion (GLP-1 sensitivity)” value ([1]; HFD diabetic mice, chronic NO-donor treatment (1 week))?
**A.** Its value is “enhanced”.

**Q.** And the insulin secretion (insulin secretion; HFD GLP-1 resistant diabetic mice, oral and acute administration)?
**A.** Its insulin secretion is “improved insulin secretion”.

**Q.** And the “insulin secretion after oral glucose challenge” value (insulin secretion; NCD-fed mice, oral and acute treatment)?
**A.** Its value is “induced insulin secretion”.

**Q.** What about the gastric emptying (gastric emptying; HFD diabetic mice, NO-donor treatment) of the same compound?
**A.** The gastric emptying was “could also improve”.

**Q.** And the gastric emptying inhibition (gastric emptying; oral NO donor, through the GLP-1r)?
**A.** The gastric emptying inhibition was “can induce gastric emptying inhibition”.

**Q.** What does the source list for `COC(=O)[C@@H](N)CCCNC(=N)N[N+](=O)[O-]` [L-NAME]?
**A.** effect on GLP-1-induced insulin secretion ([1]; NCD mice, L-NAME i.p. 30 min before GLP-1 challenge): partially reduced; effect on GLP-1-induced food intake inhibition (food intake; [4]): but not GLP-1-induced food intake inhibition; effect on GLP-1-induced gastric emptying inhibition (gastric emptying; [4]): altered
